Results from patent US20080009418A1, “Selective Inhibitors” (Alchemia LTD., priority 2004, published 2008).

How the values were obtained:
Human Melanocortin (MC3) = molecular target: T1, Human Melanocortin (MC3) (Homo sapiens, UniProt P41968); assay: Radioligand binding, human melanocortin MC3 membranes, FlashPlate, [125I]-NDP-αMSH; details: compound at 10 μM; [125I]-NDP-αMSH
T1 construct: purchased Perkin Elmer Biosignal
Summary of the method: (§1)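 Cloned human receptor membranes were coated onto FlashPlate wells and incubated with radioligand and compound (added from a 0.5 mM DMSO daughter plate) for 1 hour at room temperature in the dark. Scintillation counting gave percent inhibition, with DMSO defining total and reference ligand defining non-specific binding.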

Human μ-opioid (MOP) = molecular target: T2, Human μ-opioid (MOP) (Homo sapiens, UniProt P35372); assay: Radioligand binding, human μ-opioid (MOP) membranes, FlashPlate, [3H]-Naloxone; details: compound at 10 μM; [3H]-Naloxone
T2 construct: purchased Perkin Elmer Biosignal
T2 sequence (P35372 whole entry): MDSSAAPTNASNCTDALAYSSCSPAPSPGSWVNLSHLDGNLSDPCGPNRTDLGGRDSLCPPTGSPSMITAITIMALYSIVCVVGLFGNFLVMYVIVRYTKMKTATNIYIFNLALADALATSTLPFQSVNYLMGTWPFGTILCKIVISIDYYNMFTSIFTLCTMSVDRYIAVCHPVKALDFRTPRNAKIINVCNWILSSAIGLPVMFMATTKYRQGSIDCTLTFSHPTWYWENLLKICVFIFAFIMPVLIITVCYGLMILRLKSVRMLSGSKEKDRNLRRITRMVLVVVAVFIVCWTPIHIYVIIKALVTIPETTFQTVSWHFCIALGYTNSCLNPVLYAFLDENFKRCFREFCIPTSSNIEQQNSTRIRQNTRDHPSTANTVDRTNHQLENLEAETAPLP
Summary of the method: as §1

[1] = molecular target: T3, Human neuropeptide Y (NPY-Y1) (Homo sapiens, UniProt P25929); assay: Radioligand binding, human neuropeptide Y NPY-Y1 membranes, FlashPlate, [125I]-PYY; details: compound at 10 μM; [125I]-PYY
T3 construct: purchased Perkin Elmer Biosignal
T3 sequence (P25929 1-384): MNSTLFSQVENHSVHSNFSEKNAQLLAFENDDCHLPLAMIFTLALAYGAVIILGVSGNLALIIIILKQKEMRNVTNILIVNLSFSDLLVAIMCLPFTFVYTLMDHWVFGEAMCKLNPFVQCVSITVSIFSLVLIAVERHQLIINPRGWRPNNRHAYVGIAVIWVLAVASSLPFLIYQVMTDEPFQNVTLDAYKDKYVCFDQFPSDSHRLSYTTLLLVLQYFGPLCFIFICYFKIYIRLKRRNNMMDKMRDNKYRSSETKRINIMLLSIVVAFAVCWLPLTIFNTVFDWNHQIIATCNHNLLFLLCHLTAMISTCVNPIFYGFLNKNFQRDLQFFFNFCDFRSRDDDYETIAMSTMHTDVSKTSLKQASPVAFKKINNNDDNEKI
Summary of the method: as §1

Human melanocortin (MC5) = molecular target: T4, Human melanocortin (MC5) (Homo sapiens, UniProt P33032); assay: Radioligand binding, human melanocortin MC5 membranes, FlashPlate, [125I]-NDP-αMSH; details: compound at 10 μM; [125I]-NDP-αMSH
T4 construct: purchased Perkin Elmer Biosignal
T4 sequence (P33032 whole entry): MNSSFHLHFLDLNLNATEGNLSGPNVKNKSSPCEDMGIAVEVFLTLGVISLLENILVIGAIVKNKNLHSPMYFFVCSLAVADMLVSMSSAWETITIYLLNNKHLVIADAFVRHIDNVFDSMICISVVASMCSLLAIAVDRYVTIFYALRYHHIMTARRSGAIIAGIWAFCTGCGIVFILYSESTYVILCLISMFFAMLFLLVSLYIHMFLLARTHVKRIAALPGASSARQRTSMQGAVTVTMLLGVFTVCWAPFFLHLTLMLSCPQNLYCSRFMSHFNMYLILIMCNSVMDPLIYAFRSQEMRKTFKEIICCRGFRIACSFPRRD
Summary of the method: as §1

Human Melanocortin (MC4) = molecular target: T5, Human Melanocortin (MC4) (Homo sapiens, UniProt P32245); assay: Radioligand binding, human melanocortin MC4 membranes, FlashPlate, [125I]-NDP-αMSH; details: compound at 10 μM; [125I]-NDP-αMSH
T5 construct: purchased Perkin Elmer Biosignal
T5 sequence (P32245 whole entry): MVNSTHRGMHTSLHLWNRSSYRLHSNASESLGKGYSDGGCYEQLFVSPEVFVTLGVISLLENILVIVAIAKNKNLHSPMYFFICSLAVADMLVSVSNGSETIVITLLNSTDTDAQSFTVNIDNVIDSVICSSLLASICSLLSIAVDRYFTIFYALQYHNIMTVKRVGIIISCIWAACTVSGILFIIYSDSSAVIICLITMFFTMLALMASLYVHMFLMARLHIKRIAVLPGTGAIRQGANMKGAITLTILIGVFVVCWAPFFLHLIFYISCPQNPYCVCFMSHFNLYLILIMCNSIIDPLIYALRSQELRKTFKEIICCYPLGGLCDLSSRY
Summary of the method: as §1

Mouse urotensin (mUR2) = molecular target: T6, Mouse urotensin (mUR2) (Mus musculus, UniProt Q8VIH9); assay: Radioligand binding, mouse urotensin mUR2 membranes, FlashPlate, [125I]-Urotensin II; details: compound at 10 μM; [125I]-Urotensin II
T6 construct: purchased Perkin Elmer Biosignal
T6 sequence (Q8VIH9 1-385): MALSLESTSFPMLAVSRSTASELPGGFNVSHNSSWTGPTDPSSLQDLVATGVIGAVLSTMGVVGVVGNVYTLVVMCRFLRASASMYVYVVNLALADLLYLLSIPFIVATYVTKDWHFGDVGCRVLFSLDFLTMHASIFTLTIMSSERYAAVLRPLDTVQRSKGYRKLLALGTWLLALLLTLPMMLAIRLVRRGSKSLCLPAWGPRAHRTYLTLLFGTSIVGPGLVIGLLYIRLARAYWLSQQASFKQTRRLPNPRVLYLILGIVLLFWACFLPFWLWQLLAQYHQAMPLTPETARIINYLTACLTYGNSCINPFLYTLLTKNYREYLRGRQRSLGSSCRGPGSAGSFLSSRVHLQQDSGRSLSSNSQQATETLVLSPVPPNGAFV
Summary of the method: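 Cloned mouse urotensin (mUR2) receptor membranes from Perkin Elmer Biosignal were immobilized in FlashPlate microplates using a proprietary coating. Each well got 19.5 μl buffer, then 0.5 μl of DMSO, reference ligand, or compound. Adding 5 μl of [125I]-Urotensin II, diluted to 5× final concentration in binding buffer, started binding. Plates were sealed with TopSeal-A and incubated 1 hour at room temperature in the dark. Wells were counted for 30 seconds each on a TopCount after a 60-second delay, and percentage inhibition was calculated.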

Human opioid (ORL1) = molecular target: T7, Human opioid (ORL1) (Homo sapiens, UniProt P41146); assay: Radioligand binding, human opioid ORL1 membranes, FlashPlate, [125I]-Nociceptin; details: compound at 10 μM; [125I]-Nociceptin
T7 construct: purchased Perkin Elmer Biosignal
T7 sequence (P41146 whole entry): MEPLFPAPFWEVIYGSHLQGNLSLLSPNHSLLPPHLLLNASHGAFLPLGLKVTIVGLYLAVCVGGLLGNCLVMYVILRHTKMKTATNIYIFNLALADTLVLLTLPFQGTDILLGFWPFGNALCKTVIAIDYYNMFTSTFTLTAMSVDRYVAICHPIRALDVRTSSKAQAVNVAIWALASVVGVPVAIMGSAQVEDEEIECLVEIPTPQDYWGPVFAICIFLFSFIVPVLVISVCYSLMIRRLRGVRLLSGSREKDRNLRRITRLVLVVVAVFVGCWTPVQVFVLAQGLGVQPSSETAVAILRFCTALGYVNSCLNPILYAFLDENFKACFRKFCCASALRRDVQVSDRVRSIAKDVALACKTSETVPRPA
Summary of the method: as §1

Human δ-opioid (DOP) = molecular target: T8, Human δ-opioid (DOP) (Homo sapiens, UniProt P41143); assay: Radioligand binding, human δ-opioid (DOP) membranes, FlashPlate, [3H]-Bremazocine; details: compound at 10 μM; [3H]-Bremazocine
T8 construct: purchased Perkin Elmer Biosignal
T8 sequence (P41143 whole entry): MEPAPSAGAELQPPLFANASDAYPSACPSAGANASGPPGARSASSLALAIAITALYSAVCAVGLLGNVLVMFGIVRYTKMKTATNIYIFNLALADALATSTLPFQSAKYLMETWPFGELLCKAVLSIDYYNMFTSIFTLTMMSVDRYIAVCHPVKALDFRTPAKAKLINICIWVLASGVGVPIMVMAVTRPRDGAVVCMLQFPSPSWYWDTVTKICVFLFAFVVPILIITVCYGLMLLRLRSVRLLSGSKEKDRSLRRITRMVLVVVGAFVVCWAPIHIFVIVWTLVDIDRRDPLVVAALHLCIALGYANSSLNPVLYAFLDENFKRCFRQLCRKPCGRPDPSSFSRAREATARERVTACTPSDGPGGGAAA
Summary of the method: as §1

Human κ-Opioid (KOP) = molecular target: T9, Human κ-Opioid (KOP) (Homo sapiens, UniProt P41145); assay: Radioligand binding, human κ-opioid (KOP) membranes, filtration, [3H]-Diprenorphine; details: compound at 10 μM; [3H]-Diprenorphine
T9 construct: purchased Perkin Elmer Biosignal
T9 sequence (P41145 whole entry): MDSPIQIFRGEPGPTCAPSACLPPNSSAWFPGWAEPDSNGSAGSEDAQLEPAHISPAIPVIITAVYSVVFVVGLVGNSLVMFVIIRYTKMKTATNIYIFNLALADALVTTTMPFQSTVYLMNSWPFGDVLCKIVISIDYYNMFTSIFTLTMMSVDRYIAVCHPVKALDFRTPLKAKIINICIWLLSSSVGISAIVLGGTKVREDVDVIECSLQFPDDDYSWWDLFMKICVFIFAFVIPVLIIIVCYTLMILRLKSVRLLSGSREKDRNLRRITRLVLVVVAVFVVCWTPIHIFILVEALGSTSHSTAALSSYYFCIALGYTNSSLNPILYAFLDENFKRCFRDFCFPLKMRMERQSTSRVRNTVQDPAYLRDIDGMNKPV
Summary of the method: (§2)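 Membranes from cloned human receptors were incubated with compound and radioligand for 1 hour at room temperature. Bound ligand was collected on 0.3% PEI-soaked filters, washed with cold 50 mM Tris-HCl pH 7.4, and counted by scintillation. Percent inhibition was computed against DMSO totals and reference-ligand nonspecific wells.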

Human neurokinin (NK1) = molecular target: T10, Human neurokinin (NK1) (Homo sapiens, UniProt P25103); assay: Radioligand binding, human neurokinin NK1 membranes, filtration, [125I]-Substance P; details: compound at 10 μM; [125I]-Substance P
T10 construct: purchased Perkin Elmer Biosignal
T10 sequence (P25103 whole entry): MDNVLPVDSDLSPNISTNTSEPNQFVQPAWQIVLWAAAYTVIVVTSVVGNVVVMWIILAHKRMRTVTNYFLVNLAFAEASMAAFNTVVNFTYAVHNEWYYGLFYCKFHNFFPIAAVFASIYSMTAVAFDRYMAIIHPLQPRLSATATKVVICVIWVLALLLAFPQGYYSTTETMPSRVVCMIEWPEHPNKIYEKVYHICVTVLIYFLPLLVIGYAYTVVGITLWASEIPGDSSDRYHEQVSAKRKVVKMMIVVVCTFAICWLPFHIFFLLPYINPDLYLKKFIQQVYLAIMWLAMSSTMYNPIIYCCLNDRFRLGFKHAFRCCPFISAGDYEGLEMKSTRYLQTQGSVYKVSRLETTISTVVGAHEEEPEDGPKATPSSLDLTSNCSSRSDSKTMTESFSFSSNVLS
Summary of the method: as §2

[2] = molecular target: T11, Human melanin-concentrating hormone (MCH1) (Homo sapiens, UniProt Q99705); assay: Radioligand binding, human melanin-concentrating hormone MCH1 membranes, FlashPlate, [125I]-S36057; details: compound at 10 μM; [125I]-S36057
T11 construct: purchased Perkin Elmer Biosignal
T11 sequence (Q99705 whole entry): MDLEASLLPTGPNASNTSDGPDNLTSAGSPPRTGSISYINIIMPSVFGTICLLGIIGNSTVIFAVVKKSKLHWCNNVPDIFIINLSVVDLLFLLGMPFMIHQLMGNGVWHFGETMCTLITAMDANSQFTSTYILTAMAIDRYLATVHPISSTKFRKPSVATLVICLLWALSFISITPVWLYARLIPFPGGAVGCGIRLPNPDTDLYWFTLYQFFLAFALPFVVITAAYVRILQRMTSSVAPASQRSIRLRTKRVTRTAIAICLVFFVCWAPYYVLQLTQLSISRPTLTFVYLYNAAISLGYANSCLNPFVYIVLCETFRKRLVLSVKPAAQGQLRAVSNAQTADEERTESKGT
Summary of the method: as §1

T1 sequence (P41968 whole entry): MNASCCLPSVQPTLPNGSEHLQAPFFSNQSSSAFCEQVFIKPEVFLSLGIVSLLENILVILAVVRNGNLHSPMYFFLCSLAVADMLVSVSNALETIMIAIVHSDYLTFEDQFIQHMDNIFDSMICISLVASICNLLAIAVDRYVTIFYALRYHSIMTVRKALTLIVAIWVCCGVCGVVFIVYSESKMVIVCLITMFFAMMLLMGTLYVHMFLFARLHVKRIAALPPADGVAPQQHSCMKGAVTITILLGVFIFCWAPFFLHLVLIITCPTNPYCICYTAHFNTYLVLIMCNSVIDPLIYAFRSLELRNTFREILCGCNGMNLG

SMILES	A3 radioligand binding, percentage inhibition (Human Melanocortin (MC3))	A7 radioligand binding, percentage inhibition (Human μ-opioid (MOP))	A9 radioligand binding, percentage inhibition [1]	A5 radioligand binding, percentage inhibition (Human melanocortin (MC5))	A4 radioligand binding, percentage inhibition (Human Melanocortin (MC4))	A11 radioligand binding, percentage inhibition (Mouse urotensin (mUR2))	A10 radioligand binding, percentage inhibition (Human opioid (ORL1))	A1 radioligand binding, percentage inhibition (Human δ-opioid (DOP))	A2 radioligand binding, percentage inhibition (Human κ-Opioid (KOP))	A8 radioligand binding, percentage inhibition (Human neurokinin (NK1))	A6 radioligand binding, percentage inhibition [2]
CO[C@H]1[C@H](O)[C@@H](COCc2cccc(O)c2)OC(OCCc2ccccc2)[C@@H]1NC(=O)CCNC(=N)N (stereo partly shown) [compound 159]	− (“−” indicates less than 50% inhibition at 10 μM)	− (“−” indicates less than 50% inhibition at 10 μM)	− (“−” indicates less than 50% inhibition at 10 μM)	− (“−” indicates less than 50% inhibition at 10 μM)	− (“−” indicates less than 50% inhibition at 10 μM)	− (“−” indicates less than 50% inhibition at 10 μM)	− (“−” indicates less than 50% inhibition at 10 μM)	− (“−” indicates less than 50% inhibition at 10 μM)	− (“−” indicates less than 50% inhibition at 10 μM)	+ (“+” indicates greater than 50% inhibition at 10 μM)	− (“−” indicates less than 50% inhibition at 10 μM)
CO[C@H]1[C@H](O)[C@@H](COCc2cccc(O)c2)OC(OCCc2ccccc2)[C@@H]1NC(=O)CCCN (stereo partly shown) [compound 160]	− (“−” indicates less than 50% inhibition at 10 μM)	− (“−” indicates less than 50% inhibition at 10 μM)	− (“−” indicates less than 50% inhibition at 10 μM)	− (“−” indicates less than 50% inhibition at 10 μM)	− (“−” indicates less than 50% inhibition at 10 μM)	− (“−” indicates less than 50% inhibition at 10 μM)	− (“−” indicates less than 50% inhibition at 10 μM)	− (“−” indicates less than 50% inhibition at 10 μM)	− (“−” indicates less than 50% inhibition at 10 μM)	+ (“+” indicates greater than 50% inhibition at 10 μM)	− (“−” indicates less than 50% inhibition at 10 μM)
CO[C@H]1[C@H](O)[C@@H](COCc2cccc(O)c2)OC(OCCc2ccccc2)[C@@H]1NC(=O)CCCNC(=N)N (stereo partly shown) [compound 161]	− (“−” indicates less than 50% inhibition at 10 μM)	− (“−” indicates less than 50% inhibition at 10 μM)	− (“−” indicates less than 50% inhibition at 10 μM)	− (“−” indicates less than 50% inhibition at 10 μM)	− (“−” indicates less than 50% inhibition at 10 μM)	− (“−” indicates less than 50% inhibition at 10 μM)	− (“−” indicates less than 50% inhibition at 10 μM)	− (“−” indicates less than 50% inhibition at 10 μM)	− (“−” indicates less than 50% inhibition at 10 μM)	+ (“+” indicates greater than 50% inhibition at 10 μM)	− (“−” indicates less than 50% inhibition at 10 μM)
CO[C@H]1[C@H](O)[C@@H](COCc2ccc(-c3ccccc3)cc2)OC(OCc2cccc(O)c2)[C@@H]1NC(=O)CNC(=N)N (stereo partly shown) [compound 162]	− (“−” indicates less than 50% inhibition at 10 μM)	− (“−” indicates less than 50% inhibition at 10 μM)	− (“−” indicates less than 50% inhibition at 10 μM)	− (“−” indicates less than 50% inhibition at 10 μM)	− (“−” indicates less than 50% inhibition at 10 μM)	− (“−” indicates less than 50% inhibition at 10 μM)	− (“−” indicates less than 50% inhibition at 10 μM)	− (“−” indicates less than 50% inhibition at 10 μM)	− (“−” indicates less than 50% inhibition at 10 μM)	+ (“+” indicates greater than 50% inhibition at 10 μM)	− (“−” indicates less than 50% inhibition at 10 μM)
CO[C@H]1[C@H](O)[C@@H](COCc2ccc(-c3ccccc3)cc2)OC(OCc2cccc(O)c2)[C@@H]1NC(=O)CCNC(=N)N (stereo partly shown) [compound 163]	+ (“+” indicates greater than 50% inhibition at 10 μM)	− (“−” indicates less than 50% inhibition at 10 μM)	− (“−” indicates less than 50% inhibition at 10 μM)	+ (“+” indicates greater than 50% inhibition at 10 μM)	+ (“+” indicates greater than 50% inhibition at 10 μM)	− (“−” indicates less than 50% inhibition at 10 μM)	− (“−” indicates less than 50% inhibition at 10 μM)	− (“−” indicates less than 50% inhibition at 10 μM)	− (“−” indicates less than 50% inhibition at 10 μM)	+ (“+” indicates greater than 50% inhibition at 10 μM)	− (“−” indicates less than 50% inhibition at 10 μM)
